The source made the active and inactive calls.
Key:
Streptokinase A = target: T1, Streptokinase A (Streptococcus pyogenes serotype M1, UniProt P10520); assay: viability-normalized secreted streptokinase activity reduction – plasminogen activation absorbance, OD405, dose response (AID 1914); format: functional, Streptococcus pyogenes M1 GAS;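 note: secreted streptokinase activity via plasminogen activation per viability signal from cell pellet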
T1 sequence (P10520 whole entry): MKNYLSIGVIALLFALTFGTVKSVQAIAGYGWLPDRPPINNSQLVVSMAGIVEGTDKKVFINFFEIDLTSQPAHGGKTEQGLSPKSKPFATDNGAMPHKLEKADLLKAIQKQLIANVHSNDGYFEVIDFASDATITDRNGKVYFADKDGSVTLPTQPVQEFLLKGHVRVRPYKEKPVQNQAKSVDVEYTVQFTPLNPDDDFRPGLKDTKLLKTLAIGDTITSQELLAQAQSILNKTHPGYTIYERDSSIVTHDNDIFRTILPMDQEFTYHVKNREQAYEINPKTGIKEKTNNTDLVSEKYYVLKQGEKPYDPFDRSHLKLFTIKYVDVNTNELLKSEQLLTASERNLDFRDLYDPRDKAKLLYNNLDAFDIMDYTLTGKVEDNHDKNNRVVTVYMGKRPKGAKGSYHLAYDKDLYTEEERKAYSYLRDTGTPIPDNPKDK

[1] = target: Serine/threonine-protein phosphatase (Candida dubliniensis (strain CD36 / CBS 7987 / NCPF 3949 / NRRLY-17841) (Yeast), UniProt B9W6M3); assay: blockers of CaCl2-induced CDRE-lacZ signaling – S. cerevisiae, luminescence, secondary, dose response (AID 2388); format: functional, cell-based;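 note: yeast reporter cells carrying a calcineurin-responsive lacZ construct stimulated with calcium chloride; luminescent beta-galactosidase reporter signal in whole cells rather than isolated phosphatase activity; potency for inhibition where a drop in reporter signal means calcineurin blockade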
Streptococcus = assay: GAS UMAA2166 growth inhibition – luminescence, BacTiterGlo, counter-screen for streptokinase expression inhibitor project, dose response (AID 1915); format: functional, organism-based;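 note: potency for reduction of bacterial viability or growth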
[2] = reduction of Shn3 3'UTR-driven luciferase in osteoblasts – cell-based, Clone20 osteoblasts, firefly luciferase, cherry-picked, dose response (AID 624132); format: functional;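 note: firefly luciferase luminescence from reporter carrying the Shn3 3'UTR in osteoblasts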
[3] = non-specific 3'UTR reporter inhibition in Clone20-Shn3RL – cell-based, Renilla luciferase, cherry-picked, counter-screen for Shn3 inhibitor project, dose response (AID 624133); format: functional
[4] = target: T2, Replicative DNA helicase DnaB (Mycobacterium tuberculosis, UniProt P9WMR3); assay: DnaB intein splicing inhibitors, dose response, biochemical, cell-free fluorescence (AID 449749); format: functional
T2 sequence (P9WMR3 whole entry): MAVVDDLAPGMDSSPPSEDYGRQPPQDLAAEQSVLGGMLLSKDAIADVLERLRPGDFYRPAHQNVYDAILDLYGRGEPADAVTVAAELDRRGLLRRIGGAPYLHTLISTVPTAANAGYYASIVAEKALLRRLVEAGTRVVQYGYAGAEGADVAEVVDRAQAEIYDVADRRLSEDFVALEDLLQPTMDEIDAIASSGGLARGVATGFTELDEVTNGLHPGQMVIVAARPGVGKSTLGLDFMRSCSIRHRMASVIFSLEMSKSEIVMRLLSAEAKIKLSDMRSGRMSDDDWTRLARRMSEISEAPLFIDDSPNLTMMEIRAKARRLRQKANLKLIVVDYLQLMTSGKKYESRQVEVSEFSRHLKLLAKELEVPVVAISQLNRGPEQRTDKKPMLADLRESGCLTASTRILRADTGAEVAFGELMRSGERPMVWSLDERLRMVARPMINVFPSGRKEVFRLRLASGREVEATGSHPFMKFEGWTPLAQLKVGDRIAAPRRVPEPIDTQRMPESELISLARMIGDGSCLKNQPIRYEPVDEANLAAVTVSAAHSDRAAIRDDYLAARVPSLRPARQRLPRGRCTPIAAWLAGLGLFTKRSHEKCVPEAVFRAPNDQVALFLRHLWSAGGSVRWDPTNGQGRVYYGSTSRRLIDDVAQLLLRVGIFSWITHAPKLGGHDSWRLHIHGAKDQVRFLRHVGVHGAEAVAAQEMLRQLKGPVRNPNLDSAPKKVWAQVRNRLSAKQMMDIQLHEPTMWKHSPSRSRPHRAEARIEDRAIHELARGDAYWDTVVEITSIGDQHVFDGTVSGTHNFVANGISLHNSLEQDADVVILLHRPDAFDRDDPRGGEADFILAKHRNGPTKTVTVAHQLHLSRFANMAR

[5] = target: Phosphorylase b kinase gamma catalytic chain, liver/testis isoform (Homo sapiens, UniProt P15735); format: functional;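 note: PHKG2 measured as one member of a kinome-wide kinase panel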
[6] = target: Serine/threonine-protein kinase PLK3 (Homo sapiens, UniProt Q9H4B4); format: functional
[7] = target: Ribosomal protein S6 kinase beta-1 (Homo sapiens, UniProt P23443); format: functional;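 note: measured as one member of a kinome-wide profiling panel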
[8] = target: Calcium/calmodulin-dependent protein kinase type II subunit gamma (Homo sapiens, UniProt Q13555); format: functional
SRSF protein kinase 1 = SRSF protein kinase 1 (Homo sapiens, UniProt Q96SB4); format: functional;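 note: measured as one member of a kinome-wide kinase profiling panel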
[9] = target: MAP kinase-activated protein kinase 2 (Homo sapiens, UniProt P49137); format: functional;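 note: measured as one member of a kinome-wide kinase panel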
[10] = target: Mast/stem cell growth factor receptor Kit (Homo sapiens, UniProt P10721); format: functional;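 note: KIT entry within a kinase panel assay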
[11] = target: Testis-specific serine/threonine-protein kinase 1 (Homo sapiens, UniProt Q9BXA7); format: functional
Insulin receptor = Insulin receptor (Homo sapiens, UniProt P06213); format: functional;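 note: insulin receptor kinase tested as one member of a kinome-wide kinase panel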
[12] = target: Mitogen-activated protein kinase kinase kinase 20 (Homo sapiens, UniProt Q9NYL2); format: functional
[13] = target: Non-receptor tyrosine-protein kinase TYK2 (Homo sapiens, UniProt P29597); format: functional
[14] = target: Tyrosine-protein kinase Srms (Homo sapiens, UniProt Q9H3Y6); format: functional;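 note: SRMS measured as one member of a kinome-wide kinase profiling panel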
[15] = target: Dual specificity tyrosine-phosphorylation-regulated kinase 3 (Homo sapiens, UniProt O43781); format: functional;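 note: measured as one member of a broad kinase panel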
[16] = target: Cyclin-dependent kinase 5 (Homo sapiens, UniProt Q00535); format: functional;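 note: CDK5 measured as one member of a kinase profiling panel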
[17] = target: Dual specificity tyrosine-phosphorylation-regulated kinase 4 (Homo sapiens, UniProt Q9NR20); format: functional
[18] = target: 3-phosphoinositide-dependent protein kinase 1 (Homo sapiens, UniProt O15530); format: functional;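 note: value comes from the Navigating the Kinome panel, PDPK1 member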
[19] = target: Serine/threonine-protein kinase DCLK1 (Homo sapiens, UniProt O15075); format: functional;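 note: affinity for DCLK1 (listed as DCAMKL1) measured as one member of a kinome-wide kinase profiling panel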
[20] = target: STE20-like serine/threonine-protein kinase (Homo sapiens, UniProt Q9H2G2); format: functional
[21] = target: Receptor tyrosine-protein kinase erbB-4 (Homo sapiens, UniProt Q15303); format: functional;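 note: ERBB4 member of a kinome-wide kinase profiling panel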
[22] = target: Mitogen-activated protein kinase 12 (Homo sapiens, UniProt P53778); format: functional;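 note: measured as one member of a kinome-wide kinase profiling panel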

Chain of STE20-like serine/threonine-protein kinase (Q9H2G2 whole entry): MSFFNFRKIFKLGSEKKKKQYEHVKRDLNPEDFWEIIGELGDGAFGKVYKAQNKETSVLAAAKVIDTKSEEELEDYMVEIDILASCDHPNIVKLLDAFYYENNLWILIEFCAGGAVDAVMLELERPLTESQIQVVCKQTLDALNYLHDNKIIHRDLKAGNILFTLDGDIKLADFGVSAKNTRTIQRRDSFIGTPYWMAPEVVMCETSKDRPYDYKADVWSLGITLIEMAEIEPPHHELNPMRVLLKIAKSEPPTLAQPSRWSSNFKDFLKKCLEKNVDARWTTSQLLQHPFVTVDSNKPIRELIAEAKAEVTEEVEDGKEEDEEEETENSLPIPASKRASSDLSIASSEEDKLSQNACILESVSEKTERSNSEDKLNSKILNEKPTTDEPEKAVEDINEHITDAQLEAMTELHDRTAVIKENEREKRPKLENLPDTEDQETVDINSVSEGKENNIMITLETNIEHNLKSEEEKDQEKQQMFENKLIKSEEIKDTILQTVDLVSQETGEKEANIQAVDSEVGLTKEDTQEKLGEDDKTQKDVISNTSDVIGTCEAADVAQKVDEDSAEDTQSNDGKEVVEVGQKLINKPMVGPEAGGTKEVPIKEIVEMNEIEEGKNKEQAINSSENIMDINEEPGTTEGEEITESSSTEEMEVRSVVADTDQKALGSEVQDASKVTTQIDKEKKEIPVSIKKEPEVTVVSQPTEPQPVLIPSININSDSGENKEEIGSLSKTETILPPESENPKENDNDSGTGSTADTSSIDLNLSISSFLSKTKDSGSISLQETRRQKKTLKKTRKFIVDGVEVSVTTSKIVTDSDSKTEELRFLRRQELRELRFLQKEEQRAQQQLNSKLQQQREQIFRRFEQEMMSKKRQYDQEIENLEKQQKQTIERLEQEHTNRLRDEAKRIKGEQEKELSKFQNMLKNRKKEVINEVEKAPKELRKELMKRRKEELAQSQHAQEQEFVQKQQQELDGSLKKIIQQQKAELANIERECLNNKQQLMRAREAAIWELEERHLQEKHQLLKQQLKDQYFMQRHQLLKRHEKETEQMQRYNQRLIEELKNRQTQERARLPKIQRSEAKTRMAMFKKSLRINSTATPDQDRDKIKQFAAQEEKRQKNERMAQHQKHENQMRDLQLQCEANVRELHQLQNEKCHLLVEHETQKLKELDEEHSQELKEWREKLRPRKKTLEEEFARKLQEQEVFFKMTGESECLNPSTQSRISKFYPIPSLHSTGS
Chain of Receptor tyrosine-protein kinase erbB-4 (Q15303 whole entry): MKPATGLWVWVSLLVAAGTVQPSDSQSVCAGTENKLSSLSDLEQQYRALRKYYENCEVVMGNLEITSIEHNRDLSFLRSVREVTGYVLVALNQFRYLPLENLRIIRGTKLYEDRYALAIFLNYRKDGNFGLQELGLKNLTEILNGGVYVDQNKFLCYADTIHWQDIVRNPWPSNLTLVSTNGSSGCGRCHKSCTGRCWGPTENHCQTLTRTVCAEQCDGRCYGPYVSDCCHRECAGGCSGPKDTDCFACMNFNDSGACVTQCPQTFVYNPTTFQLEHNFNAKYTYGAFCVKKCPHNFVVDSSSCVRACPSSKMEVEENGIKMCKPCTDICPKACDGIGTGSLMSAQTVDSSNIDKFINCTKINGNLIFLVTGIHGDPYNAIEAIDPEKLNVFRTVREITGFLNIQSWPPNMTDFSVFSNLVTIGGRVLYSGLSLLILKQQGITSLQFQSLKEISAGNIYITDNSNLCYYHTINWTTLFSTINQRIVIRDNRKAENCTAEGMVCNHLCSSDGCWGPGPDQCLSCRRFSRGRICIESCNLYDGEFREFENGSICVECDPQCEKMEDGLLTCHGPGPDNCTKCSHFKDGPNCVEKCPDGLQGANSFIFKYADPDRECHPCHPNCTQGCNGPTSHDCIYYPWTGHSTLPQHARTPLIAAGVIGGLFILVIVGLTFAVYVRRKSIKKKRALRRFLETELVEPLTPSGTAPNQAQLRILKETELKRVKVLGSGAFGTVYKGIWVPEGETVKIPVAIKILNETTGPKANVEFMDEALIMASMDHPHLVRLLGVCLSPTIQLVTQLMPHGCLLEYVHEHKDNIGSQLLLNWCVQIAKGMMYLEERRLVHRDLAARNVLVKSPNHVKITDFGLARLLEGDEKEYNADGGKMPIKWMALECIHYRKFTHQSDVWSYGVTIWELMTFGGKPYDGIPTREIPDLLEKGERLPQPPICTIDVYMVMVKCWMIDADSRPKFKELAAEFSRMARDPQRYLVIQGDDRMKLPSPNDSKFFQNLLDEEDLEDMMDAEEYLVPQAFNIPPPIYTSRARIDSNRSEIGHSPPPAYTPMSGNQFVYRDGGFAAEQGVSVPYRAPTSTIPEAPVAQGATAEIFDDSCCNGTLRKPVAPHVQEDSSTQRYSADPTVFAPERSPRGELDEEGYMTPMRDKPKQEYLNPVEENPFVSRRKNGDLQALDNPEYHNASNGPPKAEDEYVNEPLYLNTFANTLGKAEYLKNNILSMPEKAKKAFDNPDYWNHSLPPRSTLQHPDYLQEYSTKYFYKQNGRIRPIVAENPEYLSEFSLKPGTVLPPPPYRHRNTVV
Chain of Testis-specific serine/threonine-protein kinase 1 (Q9BXA7 whole entry): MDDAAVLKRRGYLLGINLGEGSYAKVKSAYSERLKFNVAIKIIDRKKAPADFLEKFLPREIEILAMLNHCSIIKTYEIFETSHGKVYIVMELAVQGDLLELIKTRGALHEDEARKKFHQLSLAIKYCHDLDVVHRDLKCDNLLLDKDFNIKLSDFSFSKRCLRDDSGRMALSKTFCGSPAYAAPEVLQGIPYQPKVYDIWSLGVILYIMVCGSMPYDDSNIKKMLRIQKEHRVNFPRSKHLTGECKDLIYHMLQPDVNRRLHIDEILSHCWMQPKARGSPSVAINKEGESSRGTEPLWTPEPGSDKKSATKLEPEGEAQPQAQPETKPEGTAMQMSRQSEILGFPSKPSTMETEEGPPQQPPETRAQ
Chain of Tyrosine-protein kinase Srms (Q9H3Y6 whole entry): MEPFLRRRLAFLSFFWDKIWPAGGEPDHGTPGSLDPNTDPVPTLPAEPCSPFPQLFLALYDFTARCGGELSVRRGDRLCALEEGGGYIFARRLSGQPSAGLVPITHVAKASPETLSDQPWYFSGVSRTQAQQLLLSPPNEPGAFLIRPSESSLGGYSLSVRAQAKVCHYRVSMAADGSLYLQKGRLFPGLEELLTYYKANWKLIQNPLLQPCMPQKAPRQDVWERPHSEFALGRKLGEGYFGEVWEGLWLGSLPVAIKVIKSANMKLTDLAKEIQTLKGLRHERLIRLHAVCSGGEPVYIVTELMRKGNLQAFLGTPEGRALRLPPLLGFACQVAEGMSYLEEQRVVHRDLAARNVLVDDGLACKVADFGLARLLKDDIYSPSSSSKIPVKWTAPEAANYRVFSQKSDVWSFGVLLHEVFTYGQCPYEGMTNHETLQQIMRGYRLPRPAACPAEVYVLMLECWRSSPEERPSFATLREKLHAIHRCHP
Chain of Ribosomal protein S6 kinase beta-1 (P23443 whole entry): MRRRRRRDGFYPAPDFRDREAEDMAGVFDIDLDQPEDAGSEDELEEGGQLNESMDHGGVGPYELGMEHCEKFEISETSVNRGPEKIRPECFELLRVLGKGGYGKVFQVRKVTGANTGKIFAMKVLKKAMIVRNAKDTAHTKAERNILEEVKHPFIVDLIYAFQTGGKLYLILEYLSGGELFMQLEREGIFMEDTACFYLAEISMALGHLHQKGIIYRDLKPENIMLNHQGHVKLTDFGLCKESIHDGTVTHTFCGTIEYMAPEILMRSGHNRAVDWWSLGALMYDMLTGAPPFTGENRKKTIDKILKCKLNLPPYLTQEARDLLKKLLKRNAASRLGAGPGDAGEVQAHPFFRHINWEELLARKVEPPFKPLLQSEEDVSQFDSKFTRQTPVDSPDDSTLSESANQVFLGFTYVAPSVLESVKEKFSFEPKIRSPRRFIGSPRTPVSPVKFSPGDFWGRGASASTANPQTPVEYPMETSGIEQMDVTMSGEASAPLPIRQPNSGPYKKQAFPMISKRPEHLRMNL
Chain of Serine/threonine-protein kinase PLK3 (Q9H4B4 whole entry): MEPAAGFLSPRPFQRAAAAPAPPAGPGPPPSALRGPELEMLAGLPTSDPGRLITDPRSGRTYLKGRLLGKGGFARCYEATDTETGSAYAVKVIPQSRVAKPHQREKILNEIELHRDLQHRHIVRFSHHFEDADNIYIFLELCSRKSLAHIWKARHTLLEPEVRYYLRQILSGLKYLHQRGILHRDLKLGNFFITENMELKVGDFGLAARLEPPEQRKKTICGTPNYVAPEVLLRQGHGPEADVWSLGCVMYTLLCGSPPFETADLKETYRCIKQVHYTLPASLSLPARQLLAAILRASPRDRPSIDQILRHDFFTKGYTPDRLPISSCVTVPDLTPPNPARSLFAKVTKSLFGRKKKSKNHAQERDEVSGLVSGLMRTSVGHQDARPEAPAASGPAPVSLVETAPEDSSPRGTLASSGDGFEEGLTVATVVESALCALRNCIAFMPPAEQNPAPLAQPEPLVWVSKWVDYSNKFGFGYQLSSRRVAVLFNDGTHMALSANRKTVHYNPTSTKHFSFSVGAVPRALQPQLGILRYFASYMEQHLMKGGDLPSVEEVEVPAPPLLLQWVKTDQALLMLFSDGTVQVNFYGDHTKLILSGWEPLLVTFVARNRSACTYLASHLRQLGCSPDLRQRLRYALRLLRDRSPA
Chain of MAP kinase-activated protein kinase 2 (P49137 whole entry): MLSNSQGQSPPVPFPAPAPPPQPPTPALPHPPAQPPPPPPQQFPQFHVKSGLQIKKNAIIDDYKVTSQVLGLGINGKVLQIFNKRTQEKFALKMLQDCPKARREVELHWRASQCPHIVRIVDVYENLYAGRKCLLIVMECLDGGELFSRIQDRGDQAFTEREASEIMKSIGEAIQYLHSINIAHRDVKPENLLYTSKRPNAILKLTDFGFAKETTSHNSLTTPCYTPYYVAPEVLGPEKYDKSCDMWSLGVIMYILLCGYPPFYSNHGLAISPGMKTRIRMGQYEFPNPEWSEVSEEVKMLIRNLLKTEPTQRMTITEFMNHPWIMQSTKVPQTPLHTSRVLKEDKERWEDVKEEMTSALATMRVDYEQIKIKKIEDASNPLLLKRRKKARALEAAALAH

Cc1cc(NC(c2ccc(Cl)cc2)c2ccc3cccnc3c2O)no1 (stereo unspecified)
EC50 (Streptokinase A): > 150000 nM (not active) | EC50 [1]: > 180000 nM (inactive) | EC50 (Streptococcus): 15000 nM (active) | AC50 [2]: 1050 nM (active) | AC50 [3]: 677 nM (active)

OCC[n+]1c2ccccc2nc2ccc(N3CCOCC3)cc21
AC50 [4]: > 380000 nM (inactive)

CS(=O)(=O)N(Cc1ccc2[nH]c(=O)c3cccn3c2c1)C1CC1
Ki [5]: 2000 nM (active) | Ki [6]: 15.8 nM (active) | Ki [7]: > 6310 nM (inactive) | Ki [8]: 251 nM (active) | Ki (SRSF protein kinase 1): 200 nM (active) | Ki [9]: 79.4 nM (active) | Ki [10]: 251 nM (active) | Ki [11]: > 1580 nM (inactive) | Ki (Insulin receptor): > 5010 nM (inactive) | Ki [12]: 251 nM (active) | Ki [13]: > 2000 nM (inactive) | Ki [14]: 631 nM (active) | Ki [15]: 158 nM (active) | Ki [16]: > 6310 nM (inactive) | Ki [17]: 39.8 nM (active) | Ki [18]: 79.4 nM (active) | Ki [19]: > 10000 nM (inactive) | Ki [20]: > 10000 nM (inactive) | Ki [21]: > 3980 nM (inactive) | Ki [22]: 316 nM (active)
